# Laboratory results from patent US10080739B2, “Aryl imidazoles and their use as anti-cancer agents” (Aptose Biosciences Inc., priority 2003, dated 2018).
# What was measured:
# GSK3α = molecular target: T1, GSK3α (Homo sapiens, UniProt P49840); test: kinase profiler, GSK3α; type: biochemical; details: 10 μM compound, 100 μM ATP, mean of % control
# T1 construct: purchased Upstate Biotechnologies (kinase profiler service)
# Experimental: (§1) Compound 45 was tested for its ability to function as a kinase inhibitor using the kinase profiler service from Upstate Biotechnologies. The general protocol employed is as follows: recombinant kinases were incubated with specific substrates, 10 mM MgAcetate, and [γ-^33P-ATP]. The reaction was initiated by the addition of MgATP mix. After incubation at room temperature for 40 minutes, the reaction was stopped by the addition of 5 μl of a 3% phosphoric acid solution. 10 μl of the reaction was then spotted on to a P30 filtermat and washed 3 times for 5 min. in 75 mM phosphoric acid and once in methanol prior to drying and scintillation counting. Each reaction was performed in duplicate with 100 μM ATP −/+10 μM compound 45. Results are presented in Table IV and are expressed as the mean of % control (no compound). PI 3-kinase-γ (PI3K-γ) activity was determined with the PIProfiler™ assay, which measures the binding of the GRP1 pleckstrin homology (PH) domain to PIP3, the product of PI3K acting on its physiological substrate PIP2.
# Fes = molecular target: T2, Fes (Homo sapiens, UniProt P07332); test: kinase profiler, Fes; type: biochemical; details: 10 μM compound, 100 μM ATP, mean of % control
# T2 construct: purchased Upstate Biotechnologies (kinase profiler service)
# Experimental: as §1
# SAPK2b = molecular target: T3, SAPK2b (Homo sapiens, UniProt Q15759); test: kinase profiler, SAPK2b; type: biochemical; details: 10 μM compound, 100 μM ATP, mean of % control
# T3 construct: purchased Upstate Biotechnologies (kinase profiler service)
# Experimental: as §1
# JNK3 = molecular target: T4, JNK3 (Homo sapiens, UniProt P53779); test: kinase profiler, JNK3; type: biochemical; details: 10 μM compound, 100 μM ATP, mean of % control
# T4 construct: purchased Upstate Biotechnologies (kinase profiler service)
# Experimental: as §1
# EphA2 = molecular target: T5, EphA2 (Homo sapiens, UniProt P29317); test: kinase profiler, EphA2; type: biochemical; details: 10 μM compound, 100 μM ATP, mean of % control
# T5 construct: purchased Upstate Biotechnologies (kinase profiler service)
# Experimental: as §1
# Lyn = molecular target: T6, Lyn (Homo sapiens, UniProt P07948); test: kinase profiler, Lyn; type: biochemical; details: 10 μM compound, 100 μM ATP, mean of % control
# T6 construct: purchased Upstate Biotechnologies (kinase profiler service)
# Experimental: as §1
# PKD2 = molecular target: T7, PKD2 (Homo sapiens, UniProt Q9BZL6); test: kinase profiler, PKD2; type: biochemical; details: 10 μM compound, 100 μM ATP, mean of % control
# T7 construct: purchased Upstate Biotechnologies (kinase profiler service)
# Experimental: as §1
# leukemia cell lines = test: NCI/DTP screen, leukemia cell lines; type: cell-based, human
# Experimental: The twenty-three compounds of Formula I shown below were evaluated for their antiproliferative effects in a panel of 60 human cancer cell lines as part of the in vitro anticancer screening services provided by the DTP (Developmental Therapeutics Program) of the US National Cancer Institute (NCI) U.S. National Cancer Institute (NCI) of the National Institutes of Health (NIH) in […], Md.
# The NCI conducts a standard 48/72 hour 60 cell line assay and an in vitro time course assay as described in Alley et al. (Cancer Res (1988) 48:589). In the standard 60 cell line assay, a minimum of 5 concentrations of the test compound are tested at 10-fold dilutions against 60 cell lines and cell growth is assayed at 48 and 72 hours using a sulphorhodamine B assay. For the time course analysis, tumour cells are treated with the test compound at various time points, then washed and grown in medium free of the test compound until the end of the experiment at 144 hrs. This assay employs 20% FBS to better approximate the minimum c×t (concentrations and times) test compound exposure conditions that are required to achieve activity in vivo. Cell growth is quantified by an MTT assay (similar to the XTT assay described above) and the concentration of the test compound required for growth inhibition is determined. […]
# MAPK2 = molecular target: T8, MAPK2 (Homo sapiens, UniProt P28482); test: kinase profiler, MAPK2; type: biochemical; details: 10 μM compound, 100 μM ATP, mean of % control
# T8 construct: purchased Upstate Biotechnologies (kinase profiler service)
# Experimental: as §1
# CDK2/cyclinA = molecular target: T9, CDK2/cyclinA (Homo sapiens, UniProt P24941); test: kinase profiler, CDK2/cyclinA; type: biochemical; details: 10 μM compound, 100 μM ATP, mean of % control
# T9 construct: purchased Upstate Biotechnologies (kinase profiler service)
# Experimental: as §1
# Pim-1 = molecular target: T10, Pim-1 (Homo sapiens, UniProt P11309); test: kinase profiler, Pim-1; type: biochemical; details: 10 μM compound, 100 μM ATP, mean of % control
# T10 construct: purchased Upstate Biotechnologies (kinase profiler service)
# Experimental: as §1
# CDK3/cyclinE = molecular target: T11, CDK3/cyclinE (Homo sapiens, UniProt Q00526); test: kinase profiler, CDK3/cyclinE; type: biochemical; details: 10 μM compound, 100 μM ATP, mean of % control
# T11 construct: purchased Upstate Biotechnologies (kinase profiler service)
# Experimental: as §1
# T2 sequence (P07332 whole entry): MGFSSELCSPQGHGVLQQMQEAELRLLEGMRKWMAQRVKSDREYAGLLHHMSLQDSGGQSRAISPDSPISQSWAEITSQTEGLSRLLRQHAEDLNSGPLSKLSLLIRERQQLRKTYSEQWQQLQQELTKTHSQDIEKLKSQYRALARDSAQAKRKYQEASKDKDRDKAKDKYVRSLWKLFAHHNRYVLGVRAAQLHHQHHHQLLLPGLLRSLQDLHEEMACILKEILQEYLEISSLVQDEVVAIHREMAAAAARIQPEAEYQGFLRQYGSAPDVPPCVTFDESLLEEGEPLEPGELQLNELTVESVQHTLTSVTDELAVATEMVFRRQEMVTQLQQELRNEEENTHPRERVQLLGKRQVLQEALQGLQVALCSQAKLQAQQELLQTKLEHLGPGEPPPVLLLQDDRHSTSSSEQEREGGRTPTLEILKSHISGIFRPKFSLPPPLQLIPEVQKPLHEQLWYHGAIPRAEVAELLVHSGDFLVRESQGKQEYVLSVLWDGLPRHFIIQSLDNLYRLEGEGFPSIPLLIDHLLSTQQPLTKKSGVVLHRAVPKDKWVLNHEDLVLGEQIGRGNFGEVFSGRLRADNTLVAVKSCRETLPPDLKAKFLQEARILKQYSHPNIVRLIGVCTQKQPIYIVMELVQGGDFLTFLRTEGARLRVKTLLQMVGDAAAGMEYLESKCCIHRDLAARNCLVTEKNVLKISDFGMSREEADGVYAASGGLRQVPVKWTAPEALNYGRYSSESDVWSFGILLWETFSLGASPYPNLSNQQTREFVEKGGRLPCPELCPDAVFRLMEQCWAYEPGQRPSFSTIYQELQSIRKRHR
# T3 sequence (Q15759 whole entry): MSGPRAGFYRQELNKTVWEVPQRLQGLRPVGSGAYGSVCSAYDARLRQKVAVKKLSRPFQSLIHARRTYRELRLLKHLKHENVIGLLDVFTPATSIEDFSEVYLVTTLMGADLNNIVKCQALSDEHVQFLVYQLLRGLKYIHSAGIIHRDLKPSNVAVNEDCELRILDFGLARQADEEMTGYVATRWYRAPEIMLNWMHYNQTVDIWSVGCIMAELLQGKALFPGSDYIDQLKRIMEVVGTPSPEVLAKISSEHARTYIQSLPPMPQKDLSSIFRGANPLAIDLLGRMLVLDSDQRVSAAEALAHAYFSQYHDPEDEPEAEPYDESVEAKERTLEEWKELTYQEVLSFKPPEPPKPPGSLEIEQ
# T7 sequence (Q9BZL6 whole entry): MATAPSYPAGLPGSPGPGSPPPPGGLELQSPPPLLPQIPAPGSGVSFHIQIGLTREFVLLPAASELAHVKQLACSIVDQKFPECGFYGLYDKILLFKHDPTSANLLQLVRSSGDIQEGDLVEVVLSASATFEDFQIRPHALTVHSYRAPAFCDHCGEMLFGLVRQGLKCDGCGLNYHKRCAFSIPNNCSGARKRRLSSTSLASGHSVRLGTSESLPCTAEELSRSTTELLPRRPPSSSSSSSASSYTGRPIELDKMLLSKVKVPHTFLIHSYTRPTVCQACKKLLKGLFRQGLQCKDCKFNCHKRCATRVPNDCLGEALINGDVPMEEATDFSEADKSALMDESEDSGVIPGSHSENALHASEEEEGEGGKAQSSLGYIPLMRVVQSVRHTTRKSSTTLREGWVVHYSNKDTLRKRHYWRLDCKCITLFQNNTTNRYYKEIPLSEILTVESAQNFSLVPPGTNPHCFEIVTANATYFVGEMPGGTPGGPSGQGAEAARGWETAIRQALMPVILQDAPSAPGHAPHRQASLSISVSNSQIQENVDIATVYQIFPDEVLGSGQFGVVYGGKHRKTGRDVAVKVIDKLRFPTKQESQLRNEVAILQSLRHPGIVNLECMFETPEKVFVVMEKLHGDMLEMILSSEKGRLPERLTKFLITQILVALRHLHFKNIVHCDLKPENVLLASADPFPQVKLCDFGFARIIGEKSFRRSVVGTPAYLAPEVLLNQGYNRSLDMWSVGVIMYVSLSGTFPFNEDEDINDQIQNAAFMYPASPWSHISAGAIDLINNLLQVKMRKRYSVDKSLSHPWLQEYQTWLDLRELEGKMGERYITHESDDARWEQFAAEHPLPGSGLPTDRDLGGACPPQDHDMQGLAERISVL
# T5 sequence (P29317 24-976): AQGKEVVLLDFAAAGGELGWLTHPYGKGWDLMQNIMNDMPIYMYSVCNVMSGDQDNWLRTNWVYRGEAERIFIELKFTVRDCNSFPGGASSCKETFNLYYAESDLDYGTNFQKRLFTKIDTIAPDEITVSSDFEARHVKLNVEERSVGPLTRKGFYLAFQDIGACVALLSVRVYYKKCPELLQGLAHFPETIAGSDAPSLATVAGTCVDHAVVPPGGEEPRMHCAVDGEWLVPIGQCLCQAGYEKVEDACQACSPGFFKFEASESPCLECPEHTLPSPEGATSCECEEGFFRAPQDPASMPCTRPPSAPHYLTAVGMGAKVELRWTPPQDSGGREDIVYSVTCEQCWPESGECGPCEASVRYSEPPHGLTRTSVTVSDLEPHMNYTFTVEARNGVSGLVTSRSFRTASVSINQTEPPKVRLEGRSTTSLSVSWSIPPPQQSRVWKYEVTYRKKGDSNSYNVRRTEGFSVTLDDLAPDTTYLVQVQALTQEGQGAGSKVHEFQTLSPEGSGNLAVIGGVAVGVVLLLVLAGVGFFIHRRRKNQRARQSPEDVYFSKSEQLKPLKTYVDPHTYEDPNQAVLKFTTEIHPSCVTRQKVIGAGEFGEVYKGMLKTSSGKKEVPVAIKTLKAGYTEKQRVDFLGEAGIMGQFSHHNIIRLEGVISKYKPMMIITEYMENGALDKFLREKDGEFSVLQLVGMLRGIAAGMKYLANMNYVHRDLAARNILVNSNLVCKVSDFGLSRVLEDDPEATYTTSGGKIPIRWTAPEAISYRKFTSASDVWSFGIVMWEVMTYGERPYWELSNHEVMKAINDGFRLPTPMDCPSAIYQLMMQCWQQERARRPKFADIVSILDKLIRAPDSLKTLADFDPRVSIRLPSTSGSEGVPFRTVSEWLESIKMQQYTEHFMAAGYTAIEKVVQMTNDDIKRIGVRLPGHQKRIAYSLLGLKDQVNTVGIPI
# T8 sequence (P28482 whole entry): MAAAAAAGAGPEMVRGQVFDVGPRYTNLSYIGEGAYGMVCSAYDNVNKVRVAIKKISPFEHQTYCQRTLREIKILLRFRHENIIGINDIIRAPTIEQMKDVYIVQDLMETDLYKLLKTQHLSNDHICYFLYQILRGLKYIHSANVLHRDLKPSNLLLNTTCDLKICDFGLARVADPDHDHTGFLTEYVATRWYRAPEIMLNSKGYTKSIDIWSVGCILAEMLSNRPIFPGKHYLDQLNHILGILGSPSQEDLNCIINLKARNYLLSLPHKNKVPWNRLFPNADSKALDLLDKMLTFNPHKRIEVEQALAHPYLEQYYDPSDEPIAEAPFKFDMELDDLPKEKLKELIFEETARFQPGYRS
# T6 sequence (P07948 whole entry): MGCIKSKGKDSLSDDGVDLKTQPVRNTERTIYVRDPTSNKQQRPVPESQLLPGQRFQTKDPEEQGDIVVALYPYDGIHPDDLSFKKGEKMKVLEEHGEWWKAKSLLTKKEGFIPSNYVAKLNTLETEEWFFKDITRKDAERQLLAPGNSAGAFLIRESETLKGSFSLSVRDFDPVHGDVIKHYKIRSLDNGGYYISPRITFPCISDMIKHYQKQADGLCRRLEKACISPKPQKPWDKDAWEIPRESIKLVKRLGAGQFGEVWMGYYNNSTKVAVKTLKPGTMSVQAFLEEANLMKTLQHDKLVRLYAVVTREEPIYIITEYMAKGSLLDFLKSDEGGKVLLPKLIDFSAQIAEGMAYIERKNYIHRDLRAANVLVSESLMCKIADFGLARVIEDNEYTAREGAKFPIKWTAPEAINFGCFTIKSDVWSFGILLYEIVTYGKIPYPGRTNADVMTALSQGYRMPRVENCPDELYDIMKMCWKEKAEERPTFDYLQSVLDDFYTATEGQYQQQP
# T4 sequence (P53779 whole entry): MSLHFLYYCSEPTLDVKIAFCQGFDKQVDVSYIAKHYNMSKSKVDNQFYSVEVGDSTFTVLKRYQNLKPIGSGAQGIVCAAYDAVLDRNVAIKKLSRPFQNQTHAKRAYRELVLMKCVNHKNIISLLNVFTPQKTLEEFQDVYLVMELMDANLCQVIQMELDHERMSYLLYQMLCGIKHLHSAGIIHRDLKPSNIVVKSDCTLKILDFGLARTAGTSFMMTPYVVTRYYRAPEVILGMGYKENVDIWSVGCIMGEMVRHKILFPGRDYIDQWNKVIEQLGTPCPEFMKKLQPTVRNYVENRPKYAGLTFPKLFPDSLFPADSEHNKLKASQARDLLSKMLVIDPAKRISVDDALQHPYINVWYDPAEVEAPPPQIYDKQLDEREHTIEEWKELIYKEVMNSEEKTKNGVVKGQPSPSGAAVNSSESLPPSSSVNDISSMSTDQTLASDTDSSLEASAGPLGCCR
# T10 sequence (P11309 whole entry): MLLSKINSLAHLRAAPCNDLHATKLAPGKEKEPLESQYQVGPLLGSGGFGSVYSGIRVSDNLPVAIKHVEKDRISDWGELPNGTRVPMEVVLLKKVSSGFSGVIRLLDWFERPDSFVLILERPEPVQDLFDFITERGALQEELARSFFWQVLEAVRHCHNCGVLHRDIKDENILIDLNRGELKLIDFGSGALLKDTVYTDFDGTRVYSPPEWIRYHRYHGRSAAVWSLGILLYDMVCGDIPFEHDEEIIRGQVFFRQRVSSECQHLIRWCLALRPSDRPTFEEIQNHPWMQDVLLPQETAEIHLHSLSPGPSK
smiles,measurement,setting,value
Brc1ccc2[nH]cc(-c3nc4c5ccccc5c5ccccc5c4[nH]3)c2c1 [Compound 45],activity at 10 µM,GSK3α,96%
same,activity at 10 µM,Fes,99%
same,activity at 10 µM,SAPK2b,80%
same,activity at 10 µM,JNK3,121%
same,activity at 10 µM,EphA2,95%
same,activity at 10 µM,Lyn,81%
same,activity at 10 µM,PKD2,52%
same,GI50,"leukemia cell lines; Homo sapiens, leukemia cell lines (FIG. 10B)",3.4 µM
same,TGI (total growth inhibition),"leukemia cell lines; leukemia cell lines, 100 μM the highest concentration used (FIG. 10C)",> 100 µM
same,activity at 10 µM,MAPK2,99%
same,activity at 10 µM,CDK2/cyclinA,95%
same,activity at 10 µM,Pim-1,70%
same,activity at 10 µM,CDK3/cyclinE,107%
